{"source": "patent US20260174829A1", "about": "“METHODS OF REDUCING TYPE 2 CYTOKINE-MEDIATED INFLAMMATION USING NEUROMEDIN PEPTIDES” (Rutgers, The State University of New Jersey, priority 2018, published 2026)", "key": {"[1]": {"system": "papain-induced allergic airway inflammation", "assay": "Papain-induced allergic airway inflammation, Nmb i.t.", "format": "in vivo, mouse", "conditions": "papain-challenged mice, Nmb i.t. vs PBS, lung", "experimental": "(§1) FIGS. 7A-7I. Nmb treatment is sufficient to suppress allergic airway inflammation. Mice challenged with papain were treated with PBS or Nmb (i.t.) and (A) Lung ILC2s, (B) IL-5+ and IL-13+ ILC2s, and (C) eosinophils were evaluated. […] Mesenteric lymph nodes (MLNs) were isolated on day 7 post-Nb and single cells suspensions were treated with anti-CD3 and anti-CD28 in the presence or absence of Nmb for 48 hours and (E), IL-5 and (F) IL-13 were quantified in cell-free supernatants by ELISA. (F-I), Modified versions of Nmb (see Table 2) were tested for their ability to alter IL-5 and IL-13 production from anti-CD3 and anti-CD28 MLN cells isolated on day 7 post-Nb. P values were determined by two-tailed Student's t-tests. Blue asterisks represent comparisons between media treated controls and native Nmb. Red asterisks represent comparisons between media treated controls and modified version of Nmb as described in Table 2. (*,p<0.05), (**,p<0.01), (***,p<0.001) or (F-I).\nA well-established model of papain-induced allergic airway inflammation known to be dependent on ILC2s was utilized (19, 20). Mice treated with papain presented with elevated percentages of ILC2s (FIG. 7A), elevated expression of IL-5 and IL-13 by ILC2s (FIG. 7B) and lung eosinophilia (FIG. 7C). […] Thus, Nmb negatively regulate ILC2 responses both in vivo and in vitro."}, "TH2 cells": {"system": "TH2 cells", "assay": "Anti-CD3/anti-CD28 stimulated lymph node cells (day 7 post-Nb), IL-5/IL-13 ELISA", "format": "cell-based, mouse", "conditions": "LN cells day 7 post-Nb, anti-CD3 and anti-CD28, 48 hours, vs media control", "experimental": "as §1\nFIGS. 8A-8B. Mesenteric lymph nodes (MLNs) were isolated on day 7 post-Nb and single cells suspensions were treated with anti-CD3 and anti-CD28 in the presence or absence of native Nmb or modified versions of the peptide for 48 hours and (A), IL-5 and (B) IL-13 were quantified in cell-free supernatants by ELISA. P values were determined by two-tailed Student's t-tests. Blue asterisks represent comparisons between media treated controls and native Nmb. Red asterisks represent comparisons between media treated controls and modified version of Nmb as described in Table 2. (*,p<0.05), (**,p<0.01), (***,p<0.001).\nAt the time points evaluated post-Nb, the majority of the type 2 cytokines are ILC2-derived (14) and any effects Nmb is having on TH2 cell responses may be difficult to detect. To address this, lung-draining LNs were isolated on day 7 post-Nb and stimulated with anti-CD3 and -CD28 to activate T cells in both the presence of absence of recombinant Nmb. LN cells treated with anti-CD3 and -CD28 produced increased amounts of IL-5, and IL-13 (FIGS. 7D, 7E).\nThus, Nmb can be employed to reduce type 2 cytokine-mediated inflammation. Native Nmb is a 10-mer peptide (SEQ ID NO: 1) that operates via its ability to bind the Nmb receptor (15). This example describes the results of an alanine scan to systematically replace various residues of the Nmb with alanine (Table 2) and the resulting ability of the variant Nmb peptides to inhibit type 2 cytokine production by TH2 cells. Further, caps were added to the native form of Nmb (SEQ ID NO: 1) and its bioactivity monitored (FIG. 5A)."}}}
{"substance": "H2N-GNLWATGHFM-amide [Nmb]", "values": [{"measurement": "papain-induced ILC2 responses", "setting": "[1]", "value": "sufficient to reduce"}, {"measurement": "papain-induced eosinophilia", "setting": "[1]", "value": "sufficient to reduce"}, {"measurement": "IL-5 production from activated TH2 cells", "setting": "TH2 cells", "value": "significantly reduced"}, {"measurement": "IL-13 production from activated TH2 cells", "setting": "TH2 cells", "value": "significantly reduced"}, {"measurement": "IL-5 production from activated TH2 cells", "setting": "TH2 cells; listed as Native Nmb", "value": "significantly reduce"}, {"measurement": "IL-5 production from activated TH2 cells", "setting": "TH2 cells; listed as native Nmb", "value": "sufficient to reduce"}, {"measurement": "IL-13 production from activated TH2 cells", "setting": "TH2 cells; listed as native Nmb", "value": "sufficient to reduce"}]}
